In patent publication US20100004240A1, “Indole Compounds” (Glaxo Group Limited, priority 2006, published 2010):
Where a name gives a salt, the structure may show the parent alone.

Experiments:
[1] = target: T1, human prostanoid EP1 receptor (Homo sapiens, UniProt P34995); assay: binding assay for the human prostanoid EP1 receptor (competition with [3H]-PGE2); conditions: [3H]-PGE2 competition, CHO-K1 cell membranes expressing human EP1; averages of a number of experiments; read-out: pIC50 value (converted)
T1 construct: expressed in transfected cells; host or cells: CHO-K1 cells, membrane fraction
T1 sequence (P34995 1-402): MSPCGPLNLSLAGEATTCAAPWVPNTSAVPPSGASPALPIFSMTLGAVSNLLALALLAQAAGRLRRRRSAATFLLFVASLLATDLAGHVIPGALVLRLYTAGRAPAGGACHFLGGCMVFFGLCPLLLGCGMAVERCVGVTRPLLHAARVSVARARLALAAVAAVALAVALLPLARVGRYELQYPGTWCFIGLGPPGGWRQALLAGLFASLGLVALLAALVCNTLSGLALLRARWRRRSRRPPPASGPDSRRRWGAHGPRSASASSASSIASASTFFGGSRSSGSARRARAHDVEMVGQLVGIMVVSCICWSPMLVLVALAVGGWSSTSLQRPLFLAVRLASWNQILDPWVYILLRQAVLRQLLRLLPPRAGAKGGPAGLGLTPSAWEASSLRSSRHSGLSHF
Procedure: Competition assay using [^3H]-PGE2.
Compound potencies are determined using a radioligand binding assay. In this assay compound potencies are determined from their ability to compete with tritiated prostaglandin E2 ([^3H]-PGE2) for binding to the human EP1 receptor.
This assay utilises Chinese hamster ovary-K1 (CHO-K1) cells into which a stable vector containing the EP1 cDNA has previously been transfected. Cells are cultured in suitable flasks containing culture medium such as DMEM:F-12 supplemented with 10% v/v foetal calf serum, 2 mM L-glutamine, 0.25 mg/ml geneticin, 10 μg/ml puromycin and 10 μM indomethacin.
Cells are detached from the culture flasks by incubation in calcium and magnesium free phosphate buffered saline containing 1 mM disodium ethylenediaminetetraacetic acid (Na2EDTA) and 10 μM indomethacin for 5 min. The cells are isolated by centrifugation at 250×g for 5 mins and suspended in an ice cold buffer such as 50 mM Tris, 1 mM Na2EDTA, 140 mM NaCl, 10 μM indomethacin (pH 7.4). The cells are homogenised using a Polytron tissue disrupter (2×10s burst at full setting), centrifuged at 48,000×g for 20 mins and the pellet containing the membrane fraction is washed (optional) three times by suspension and centrifugation at 48,000×g for 20 mins. The final membrane pellet is suspended in an assay buffer such as 10 mM 2-[N-morpholino]ethanesulphonic acid, 1 mM Na2EDTA, 10 mM MgCl2 (pH 6). Aliquots are frozen at −80° C. until required.
For the binding assay the cell membranes, competing compounds and [^3H]-PGE2 (3 nM final assay concentration) are incubated in a final volume of 100 μl for 30 min at 30^O C. All reagents are prepared in assay buffer. Reactions are terminated by rapid vacuum filtration over GF/B filters using a Brandell cell harvester. The filters are washed with ice cold assay buffer, dried and the radioactivity retained on the filters is measured by liquid scintillation counting in Packard TopCount scintillation counter.
The data are analysed using non linear curve fitting techniques to determine the concentration of compound producing 50% inhibition of specific binding (IC50).

[2] = target: T2, human EP1 receptor (Homo sapiens, UniProt P34995); assay: human EP1 calcium mobilisation assay; assay type: cell-based; conditions: for Ki: antagonism of PGE2-induced calcium mobilisation, CHO-K1 cells expressing human EP1, averages of a number of experiments, read-out: functional pKi value (converted)
T2 construct: expressed in transfected cells; host or cells: CHO-K1 cells
T2 sequence (P34995 1-402): T1 sequence (P34995 1-402)
Procedure: Briefly, the antagonist properties of compounds are assessed by their ability to inhibit the mobilisation of intracellular calcium ([Ca^2+]i) in response to activation of EP1 or EP3 receptors by the natural agonist hormone prostaglandin E2 (PGE2). Increasing concentrations of antagonist reduce the amount of calcium that a given concentration of PGE2 can mobilise. The net effect is to displace the PGE2 concentration-effect curve to higher concentrations of PGE2. The amount of calcium produced is assessed using a calcium-sensitive fluorescent dye such as Fluo-4, AM and a suitable instrument such as a Fluorimetric Imaging Plate Reader (FLIPR). Increasing amounts of [Ca^2+]i produced by receptor activation increase the amount of fluorescence produced by the dye and give rise to an increasing signal. The signal may be detected using the FLIPR instrument and the data generated may be analysed with suitable curve-fitting software.
The human EP1 or EP3 calcium mobilisation assay (hereafter referred to as ‘the calcium assay’) utilises Chinese hamster ovary-K1 (CHO-K1) cells into which a stable (pClN; BioTechniques 20 (1996): 102-110) vector containing either EP1 or EP3 cDNA has previously been transfected. Cells are cultured in suitable flasks containing culture medium such as DMEM:F-12 supplemented with 10% v/v foetal calf serum, 2 mM L-glutamine, 0.25 mg/ml geneticin, 100 μM flurbiprofen and 10 μg/ml puromycin.
For assay, cells are harvested using a proprietary reagent that dislodges cells such as Versene. Cells are re-suspended in a suitable quantity of fresh culture media for introduction into a 384-well plate. Following incubation for 24 hours at 37° C. the culture media is replaced with a medium containing Fluo-4 and the detergent pluronic acid, and a further incubation takes place. Concentrations of compounds are then added to the plate in order to construct concentration-effect curves. This may be performed on the FLIPR in order to assess the agonist properties of the compounds. Concentrations of PGE2 are then added to the plate in order to assess the antagonist properties of the compounds.
The data so generated may be analysed by means of a computerised curve-fitting routine. The concentration of compound that elicits a half-maximal inhibition of the calcium mobilisation induced by PGE2 (pIC50) may then be estimated.

IC50 [1] [nM] | Ki [2] [nM] | Structure (SMILES) | activity in the calcium mobilisation assay ([2]; human EP1, CHO-K1 cells)
≤ 316 | ≤ 1000 | CC(C)Cn1cc(-c2nc(-c3nc4ncccc4[nH]3)co2)c2cc(Cl)ccc21 [Example 10, 2-{2-[5-Chloro-1-(2-methylpropyl)-1H-indol-3-yl]-1,3-oxazol-4-yl}-1H-imidazo[4,5-b]pyridine] | –
≤ 316 | – | CC(C)Cn1cc(-c2nc(-c3nc4ccc(CN5CCCCC5)cc4[nH]3)co2)c2cc(Cl)ccc21 [Example 12, 2-{2-[5-Chloro-1-(2-methylpropyl)-1H-indol-3-yl]-1,3-oxazol-4-yl}-5-(1-piperidinylmethyl)-1H-benzimidazole dihydrochloride] | –
≤ 1000 | ≤ 1000 | O=C(c1coc(-c2cn(C3CCCC3)c3ccc(Cl)cc23)n1)N1CCOCC1 [Example 4, 5-Chloro-1-cyclopentyl-3-[4-(4-morpholinylcarbonyl)-1,3-oxazol-2-yl]-1H-indole] | –
≤ 1000 | – | CCNCc1ccc2nc(-c3coc(-c4cn(CC(C)C)c5ccc(Cl)cc45)n3)[nH]c2c1 [Example 14, [(2-{2-[5-Chloro-1-(2-methylpropyl)-1H-indol-3-yl]-1,3-oxazol-4-yl}-1H-benzimidazol-5-yl)methyl]ethylamine dihydrochloride] | –
≤ 316 | ≤ 316 | CC(C)Cn1cc(-c2nc(-c3nc4ccccc4[nH]3)co2)c2cc(Cl)ccc21 [Example 9, 2-{2-[5-Chloro-1-(2-methylpropyl)-1H-indol-3-yl]-1,3-oxazol-4-yl}-1H-benzimidazole hydrochloride] | –
≤ 316 | ≤ 316 | CC(C)Cn1cc(-c2nc(-c3nc4cc(CO)ccc4[nH]3)co2)c2cc(Cl)ccc21 [Example 11, (2-{2-[5-Chloro-1-(2-methylpropyl)-1H-indol-3-yl]-1,3-oxazol-4-yl}-1H-benzimidazol-5-yl)methanol] | –
– | ≤ 316 | CC(C)Cn1cc(-c2nc(C(=O)Nc3ccccn3)co2)c2cc(Cl)ccc21 [Example 6, 2-[5-Chloro-1-(2-methylpropyl)-1H-indol-3-yl]-N-2-pyridinyl-1,3-oxazole-4-carboxamide] | –
≤ 316 | ≤ 316 | CC(C)Cn1cc(-c2nc(C(N)=O)co2)c2cc(Cl)ccc21 [Example 8, 2-[5-Chloro-1-(2-methylpropyl)-1H-indol-3-yl]-1,3-oxazole-4-carboxamide] | –
≤ 316 | – | CC(C)Cn1cc(-c2nc(-c3nc4ccc(CN5CCCC5)cc4[nH]3)co2)c2cc(Cl)ccc21 [Example 13, 2-{2-[5-Chloro-1-(2-methylpropyl)-1H-indol-3-yl]-1,3-oxazol-4-yl}-5-(1-pyrrolidinylmethyl)-1H-benzimidazole dihydrochloride] | –

Structure (SMILES) | IC50 [1] [nM] | Ki [2] [nM] | activity in the calcium mobilisation assay ([2]; human EP1, CHO-K1 cells)
CC(C)Cn1cc(-c2nc(C(=O)NCC3CCOCC3)co2)c2cc(Cl)ccc21 [Example 7, 2-[5-Chloro-1-(2-methylpropyl)-1H-indol-3-yl]-N-(tetrahydro-2H-pyran-4-ylmethyl)-1,3-oxazole-4-carboxamide] | ≤ 316 | ≤ 316 | –
O=C(NN1CCOCC1)c1coc(-c2cn(CC3CC3)c3ccc(Cl)cc23)n1 [Example 2, 2-[5-Chloro-1-(cyclopropylmethyl)-1H-indol-3-yl]-N-4-morpholinyl-1,3-oxazole-4-carboxamide] | ≤ 316 | ≤ 1000 | –
O=C(NC1CCOCC1)c1coc(-c2cn(CC3CC3)c3ccc(Cl)cc23)n1 [Example 1, 2-[5-Chloro-1-(cyclopropylmethyl)-1H-indol-3-yl]-N-(tetrahydro-2H-pyran-4-yl)-1,3-oxazole-4-carboxamide] | ≤ 1000 | – | inactive
CC(C)Cn1cc(-c2nc(C(=O)Nc3cccnc3)co2)c2cc(Cl)ccc21 [Example 5, 2-[5-Chloro-1-(2-methylpropyl)-1H-indol-3-yl]-N-3-pyridinyl-1,3-oxazole-4-carboxamide] | ≤ 316 | ≤ 316 | –
O=C(NN1CCOCC1)c1coc(-c2cn(C3CCCC3)c3ccc(Cl)cc23)n1 [Example 3, 2-(5-Chloro-1-cyclopentyl-1H-indol-3-yl)-N-4-morpholinyl-1,3-oxazole-4-carboxamide] | ≤ 316 | ≤ 316 | –
